Reference: ChEMBL document CHEMBL6087386, “Radioprotective effectiveness of a novel delta-tocotrienol prodrug on mouse hematopoietic system against 60Co gamma-ray irradiation through inducing granulocyte-colony stimulating factor production” (Eur J Med Chem, 2024)
Active and inactive are the calls of the source. The rule behind the calls is not given here.

Legend:
[1] = tested on: Mus musculus; assay: Induction of G-CSF production in C57BL/6J mouse model at 100 mg/kg, sc measured for 24 hrs by ELISA analysis; assay type: functional, organism-based
[2] = tested on: Mus musculus; assay: Radioprotective activity in C57BL/6J mouse assessed as survival rate at 100 mg/kg, sc preincubated with compound for 24 hrs followed by total body irradiation with 8.5 Gy and measured after 20 days by Kaplan-meier plot analysis; assay type: functional; details: light or radiation study, 504 h, time 21 day
[3] = Stability in C57BL/6J mouse whole blood assessed as half-life; assay type: ADME, tissue-based
[4] = tested on: Mus musculus; assay: Induction of G-CSF production in C57BL/6J mouse model at 100 mg/kg, ip measured for 24 hrs by ELISA analysis; assay type: functional, organism-based
[5] = Stability in C57BL/6J mouse plasma assessed as half-life; assay type: ADME, cell-free
[6] = Stability in […] human plasma assessed as half-life; assay type: ADME, cell-free
[7] = tested on: Mus musculus; assay: Radioprotective activity in C57BL/6J mouse assessed as survival rate at 100 mg/kg, sc preincubated with compound for 24 hrs followed by total body irradiation with 8.5 Gy and measured after 30 days by Kaplan-meier plot analysis; assay type: functional; details: time 31 day; for survival at 100 mg/kg: Mus musculus, C57BL/6J, light or radiation study, 744 h

SMILES	Activity [1]	other results
CC(C)=CCC/C(C)=C/CC/C(C)=C/CC[C@]1(C)CCc2cc(OCC(C)(C)C(=O)O)cc(C)c2O1	Active	
CC(C)=CCC/C(C)=C/CC/C(C)=C/CC[C@]1(C)CCc2cc(OC(=O)c3ccncc3)cc(C)c2O1	Active	
CC(C)=CCC/C(C)=C/CC/C(C)=C/CC[C@]1(C)CCc2cc(OC(=O)c3cccnc3)cc(C)c2O1	Active	
CC(C)=CCC/C(C)=C/CC/C(C)=C/CC[C@]1(C)CCc2cc(OC(=O)CCCCC(=O)O)cc(C)c2O1	Active	survival at 100 mg/kg [2]: 70%; half-life [3]: 2.1 min
CC(=O)Oc1cc(C)c2c(c1)CC[C@@](C)(CC/C=C(\C)CC/C=C(\C)CCC=C(C)C)O2	Active	
Cc1cc(O)c(C)c2c1O[C@](C)(CCCC(C)CCCC(C)CCCC(C)C)CC2 (some centres undefined)		Activity [4]: inactive
CC(C)=CCC/C(C)=C/CC/C(C)=C/CC[C@]1(C)CCc2c(C)c(O)c(C)c(C)c2O1		Activity [4]: inactive
CCN(CC)CCOC(=O)c1ccc(N)cc1 [PROCAINE]		half-life [3]: 12.3 min; half-life [5]: 13.2 min; half-life [6]: 0.7 min
CC(C)=CCC/C(C)=C/CC/C(C)=C/CC[C@]1(C)CCc2cc(OC(=O)CCCCCC(=O)O)cc(C)c2O1	Active	survival at 100 mg/kg [2]: 70%; survival at 100 mg/kg [7]: 90%; half-life [3]: 8.6 min
CC(C)=CCC/C(C)=C/CC/C(C)=C/CC[C@]1(C)CCc2cc(OCCCO)cc(C)c2O1	Active	survival at 100 mg/kg [2]: 70%; Activity [7]: 80%
CC(C)=CCC/C(C)=C/CC/C(C)=C/CC[C@]1(C)CCc2c(C)c(O)cc(C)c2O1	Active	
CC(C)=CCC/C(C)=C/CC/C(C)=C/CC[C@]1(C)CCc2cc(OCCCCC(=O)O)cc(C)c2O1	Active	
CC(C)=CCC/C(C)=C/CC/C(C)=C/CC[C@]1(C)CCc2cc(OCCN(C)C)cc(C)c2O1	Active	
CC(C)=CCC/C(C)=C/CC/C(C)=C/CC[C@]1(C)CCc2cc(OC(=O)CC(C)(C)C(=O)O)cc(C)c2O1	Active	survival at 100 mg/kg [2]: 70%
CC(C)=CCC/C(C)=C/CC/C(C)=C/CC[C@]1(C)CCc2cc(OC(=O)/C=C/C(=O)O)cc(C)c2O1	Active	survival at 100 mg/kg [2]: 70%; survival at 100 mg/kg [7]: 90%; half-life [3]: 24.1 min
CC(C)=CCC/C(C)=C/CC/C(C)=C/CC[C@]1(C)CCc2cc(OC(=O)CCC(N)=O)cc(C)c2O1	Active	
CC(C)=CCC/C(C)=C/CC/C(C)=C/CC[C@]1(C)CCc2cc(OCC(=O)O)cc(C)c2O1	Active	
CC(C)=CCC/C(C)=C/CC/C(C)=C/CC[C@]1(C)CCc2cc(OC(=O)C3CCN(C)CC3)cc(C)c2O1	Active	

SMILES	Activity [1]	other results
COC(=O)CCC(=O)Oc1cc(C)c2c(c1)CC[C@@](C)(CC/C=C(\C)CC/C=C(\C)CCC=C(C)C)O2		half-life [3]: 30.3 min
CC(C)=CCC/C(C)=C/CC/C(C)=C/CC[C@]1(C)CCc2cc(OCCCCO)cc(C)c2O1	Active	
Cc1c(O)cc2c(c1C)O[C@](C)(CCCC(C)CCCC(C)CCCC(C)C)CC2 (some centres undefined)		Activity [4]: inactive
CC(C)=CCC/C(C)=C/CC/C(C)=C/CC[C@]1(C)CCc2cc(OCCCCCO)cc(C)c2O1	Active	
CC(C)=CCC/C(C)=C/CC/C(C)=C/CC[C@]1(C)CCc2cc(OC(=O)CCCC(=O)O)cc(C)c2O1	Active	survival at 100 mg/kg [2]: 70%; half-life [3]: 5.5 min
CC(C)=CCC/C(C)=C/CC/C(C)=C/CC[C@]1(C)CCc2cc(OCCC(=O)O)cc(C)c2O1	Active	
CC(C)=CCC/C(C)=C/CC/C(C)=C/CC[C@]1(C)CCc2cc(OCCN)cc(C)c2O1	Active	
Cc1c(C)c2c(c(C)c1O)CC[C@@](C)(CCCC(C)CCCC(C)CCCC(C)C)O2 (some centres undefined)		Activity [4]: inactive
Cc1cc(O)cc2c1O[C@](C)(CCCC(C)CCCC(C)CCCC(C)C)CC2 (some centres undefined)		Activity [4]: inactive
CCCC(CCC)C(=O)Oc1cc(C)c2c(c1)CC[C@@](C)(CC/C=C(\C)CC/C=C(\C)CCC=C(C)C)O2	Active	
CNCCOc1cc(C)c2c(c1)CC[C@@](C)(CC/C=C(\C)CC/C=C(\C)CCC=C(C)C)O2	Active	
CC(C)=CCC/C(C)=C/CC/C(C)=C/CC[C@]1(C)CCc2cc(O)c(C)c(C)c2O1	Active	
CC(C)=CCC/C(C)=C/CC/C(C)=C/CC[C@]1(C)CCc2cc(OC(=O)c3ccccn3)cc(C)c2O1	Active	
CC(C)=CCC/C(C)=C/CC/C(C)=C/CC[C@]1(C)CCc2cc(OC(=O)Cc3cccnc3)cc(C)c2O1	Active	
CC(C)=CCC/C(C)=C/CC/C(C)=C/CC[C@]1(C)CCc2cc(OC(=O)CN(C)C)cc(C)c2O1	Active	survival at 100 mg/kg [2]: 70%
CC(C)=CCC/C(C)=C/CC/C(C)=C/CC[C@]1(C)CCc2cc(OCC(C)(C)CO)cc(C)c2O1	Active	
CC(C)=CCC/C(C)=C/CC/C(C)=C/CC[C@]1(C)CCc2cc(OCCCC(=O)O)cc(C)c2O1	Active	
CC(C)=CCC/C(C)=C/CC/C(C)=C/CC[C@]1(C)CCc2cc(OC(=O)C3CCNCC3)cc(C)c2O1	Active	survival at 100 mg/kg [2]: 70%; survival at 100 mg/kg [7]: 70%
